Here are results for one molecule from patent US20030224034A1, “Personal care article and method for inhibiting attachment of yeast to skin” (priority 2002, published 2003).

For the assay, the system named is Candida albicans (ATCC 10231). The experiment in a line: Visual release protocol: inhibition of C. albicans attachment to skin (tape strips and cyanoacrylate skin pulls), fluorescence microscopy cell count. The following applies: for % Inhibition of yeast attachment / 90 View Total (number of yeast cells) / AVG per view (number of yeast cells): 2% farnesol in TSB, 60 minutes at 33 degrees Celsius; for % Inhibition of yeast attachment: 100-((sample # of cells)/(control # of cells)x100); for 90 View Total (number of yeast cells) / AVG per view (number of yeast cells): view = 6000 um^2. It counts as cell-based. The method, then: Candida albicans (ATCC 10231) was used in this study. C. albicans was sub-cultured onto a Sabourads medium fortified with glucose (SAB-Dex) agar plate (Becton Dickinson, Cockeysville, Md.) overnight at 37 degrees Celsius. The following day, 2-3 isolated C. albicans colonies were inoculated into 20 ml SAB-Dex broth and incubated overnight shaken at 220 rpm at 32 degrees Celsius for 18 hours. The broth culture was diluted to 1×10^5 CFU/ml with phosphate buffer (VWR Industries, Batavia, Ill.).
The following protocol was used to measure the inhibition of C. albicans to skin (skin tape strips and cyanoacrylate skin pulls) by farnesol. Skin tape strips were made by pulling D-Squame skin sampling discs (CuDerm Corporation, Dallas, Tex.) four times from adjacent adult male volar forearm sites. Cyanoacrylate pulls were done by putting a small amount of super glue on the skin then placing a glass slide on the wetted surface. The glue was allowed to dry then the slide was removed, pulling off the stratum corneum. The tape strips and glue pulls (both will be referred to as strips in subsequent descriptions) were placed into deep six-well plates (Becton Dickinson, Franklin Lakes, N.J.). The strips were then blocked with 2.0 ml of 5% Bovine Serum Albumin (BSA) (Sigma, St. Louis, Mo.) in PBS buffer (150 mM NaCl, 50 mM Potassium Phosphate (KP), pH 7.4) for 60 minutes at 33 degrees Celsius while shaking at 220 rpm.
Next, each well's fluid was removed and 1.0 ml (10^5 Colony Forming Units (CFU)/ml) C. albicans was added to each strip. Then, 1.0 ml of Trypticase Soy Broth (TSB) [Difco Labs, Detroit, Mich.] containing 2% farnesol (DRAGOCO, Totowa, N.J.) was added to each strip, and the plates incubated at 33 degrees Celsius for 60 minutes. The fluid was aspirated, and the strips were washed 3 times with 3.0 ml PBS. Both sides of each tape strip were washed with a stream of PBS then placed in fresh 6-well plates.
Each strip was fixed by adding 2.0 ml of 2.5% Glutaraldehyde (Sigma Chemical, St. Louis, Mo.) to each of the wells of the 6-well plates for 10 minutes. The tape strips were then washed 3 times with 3.0 ml distilled water and stained by adding 0.5 ml Calcofluor White (Difco, Ann Arbor, Mich.) to the wells for 10 to 15 minutes. The tape strips were again washed 3 times with distilled water and then flooded with 2 ng/ml Nile Red (Sigma Chemical, St. Louis, Mo.) and allowed to air dry.
Once the tape strips air-dried, the yeast cells were enumerated automatically utilizing a Nikon Eclipse TE 300 fluorescent microscope fitted with a DAPI excitation filter and a Triple Pass barrier filter (Tokyo, Japan). The counting procedure was automated (Table 1 and Table 2) through the use of MetaMorph (Universal Imaging, Dowingtown, Pa.) software such that each sample had 30 views. Each image view was a 6000 um^2. The total field of view was approximately 25% of the total tape strip and 75% of the cyanoacrylate pull. The percent inhibition was calculated as follows: 100-((sample # of cells)/(control # of cells)×100). Approximately 10^4 yeast cells bound to a 22-mm diameter D-Squame tape strip under these conditions.

Where [1] appears, read: Cyanoacrylate pull of human volar forearm skin.
The mark [2] stands for this setting: Tape strip of human volar forearm skin.

Molecules are shown by their SMILES.

With `CC(C)=CCCC(C)=CCCC(C)=CCO` [Farnesol, 3,7,11-trimethyl-2,6,10-dodecatrien-1-ol], the “% Inhibition of yeast attachment” value was 93.8% under setting [1]; 94% (Cyanoacrylate pull of human volar forearm skin, listed as farnesol); 63.8% under setting [2]; 64% (Tape strip of human volar forearm skin, listed as farnesol). The “90 View Total (number of yeast cells)” value is recorded as 955 under setting [1] and 6963 under setting [2]. The “AVG per view (number of yeast cells)” value under setting [1] was 10.6 and the “AVG per view (number of yeast cells)” value under setting [2] is 77.4. For the same molecule, under “farnesol at a concentration of 2%”, the “inhibition of the attachment of yeast to skin (in words)” value is listed as “effectively inhibit the attachment of yeast to skin”.
